This is an account of results in patent publication US9688624B2, “DP2 antagonist and uses thereof” (Brickell Biotech, Inc., priority 2010, dated 2017).

Series [1] addresses T1, DP2 receptor (Homo sapiens (Human), UniProt Q9Y5Y4). Briefly: In vitro whole blood eosinophil shape change (ESC) assay, PGD2-induced. It counts as cell-based. Here is the method:
Example 17: In Vitro Whole Blood Esoinophil Shape Change Assay
Compound 1 was evaluated in a whole blood assay of eosinophil shape change (ESC) to determine the ability of Compound 1 to antagonize a PGD2-stimulated functional response in the context of whole blood.
Blood is drawn from consenting human volunteers in EDTA vacutainer tubes and used within 1 hr of draw. A 98 μl aliquot of blood is mixed with 2 μl of Compound 1 (in 50% DMSO) in 1.2 ml polypropylene tubes. The blood is vortexed and incubated at 37° C. for 5 minutes. 5 μl of 1 μM PGD2 in PBS is added for a final concentration of 50 nM and the tubes briefly vortexed. The reactions are incubated for exactly 5 minutes at 37° C. and then terminated by placing the tubes on ice and immediately adding 250 μl of ice-cold 1:4 diluted Cytofix (BD Biosciences). The reactions are transferred to […] polystyrene round bottom tubes and the red blood cells lysed by the addition of 3 ml ammonium chloride lysing solution (150 mM NH4C1, 10 mM KHCO3, 0.1 mM EDTA disodium salt) and incubation at room temperature for 15 minutes. The cells are pelleted by spinning at 1300 rpm for 5 minutes at 4° C. and washed once with 3 ml ice-cold PBS. The cells are resuspended in 0.2 ml of ice-cold 1:4 diluted Cytofix (BD Biosciences) and analyzed on a FACSCalibur (BD Biosciences) within 2 hours. Eosinophils were gated on the basis of autofluorescence in the FL2 channel and shape change on 500 eosinophils was assayed by forward scatter and side scatter analysis. The specific change in shape induced by PGD2 was calculated as the difference between the percentage of high forward scatter eosinophils in the presence and absence of PGD2. IC50s were determined using Graphpad Prism® analysis of drug titration curves.

The target in series [2] is T1, DP2 receptor. Briefly: In vitro DP2/CRTH2 radioligand ([3H]PGD2) membrane binding assay. As for the experimental part: Example 15: In Vitro DP2/CRTH2 Binding Assay
The ability of Compound 1 to bind to the human DP2 receptor was assessed via a radioligand binding assay using [^3H]PGD2. HEK293 cells stably expressing recombinant human DP2 are resuspended in 10 mM Hepes, 7.4 containing 1 mM DTT, lysed and centrifuged at 75,000×g to pellet the membranes. The membranes are resuspended in 10 mM Hepes, 7.4 containing 1 mM DTT and 10% glycerol to approximately 5 mg protein/ml. […] The reactions are terminated by rapid filtration through Whatman GF/C glass fibre filter plates. The filter plates were pre-soaked in 0.33% polythylenimine for 30 minutes at room temperature then washed in Wash Buffer (50 mM Hepes, 0.5 M NaCl pH 7.4) prior to harvesting. After harvesting, the filter plates are washed 3 times with 1 ml cold Wash Buffer then dried. Scintillant is then added to the plates and the radioactivity retained on the filters is determined on a Packard TopCount (Perkin Elmer). Specific binding is determined as total radioactive binding minus non-specific binding in the presence of 10 μM PGD2. IC50s were determined using GraphPad prism analysis of drug titration curves. Mouse, rat and guinea pig DP2 receptors were also investigated.
The binding potency of Compound 1 is only slightly shifted in the presence of species-specific serum albumin.

The nature of series [3]: Plasma concentrations in guinea pig allergic asthma model. It counts as in vivo. The note with it: for concentration at 3 h: oral, 3 hours post dose, read-out: mean plasma Compound 1 concentration. As for the experimental part: Plasma Compound 1 concentrations were determined 3 hours and 24 hours post dose. […] At 60 mg/kg, a mean plasma concentration of 371.7±303.8 was observed 3 hours post dose. At 100 mg/kg, a mean plasma concentration of 360.8±131.3 was observed 3 hours post dose.

Series [4] has as its target CYP3A4 (Homo sapiens (Human), UniProt P08684). Description: Extracellular cytochrome P450 inhibition (microsomes). Type of series: in vitro ADME.
The target in series [5] is CYP2C19 (Homo sapiens (Human), UniProt P33261). The series is described as above. The conditions noted are these: IC50 (μM), 2C19, mephenytoin 4′-hydroxylation.
Sequence of CYP2C19 (P33261 whole entry): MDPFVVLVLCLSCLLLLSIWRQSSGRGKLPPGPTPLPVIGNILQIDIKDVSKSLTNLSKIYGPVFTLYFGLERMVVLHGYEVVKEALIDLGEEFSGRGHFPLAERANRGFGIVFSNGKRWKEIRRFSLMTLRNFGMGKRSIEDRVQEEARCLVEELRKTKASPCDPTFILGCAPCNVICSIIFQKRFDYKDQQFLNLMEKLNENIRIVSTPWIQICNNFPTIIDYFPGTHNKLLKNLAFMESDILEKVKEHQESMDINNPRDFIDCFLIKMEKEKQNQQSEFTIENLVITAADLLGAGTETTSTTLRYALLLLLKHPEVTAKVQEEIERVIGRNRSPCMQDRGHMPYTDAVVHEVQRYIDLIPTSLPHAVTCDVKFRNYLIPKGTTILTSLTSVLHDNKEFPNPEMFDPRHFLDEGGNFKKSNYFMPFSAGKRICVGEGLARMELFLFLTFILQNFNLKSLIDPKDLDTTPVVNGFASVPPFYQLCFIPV
For series [6], the target named is CYP2C9 (Homo sapiens (Human), UniProt P11712). Described as above. The conditions noted are these: 2C9, diclofenac 4′-hydroxylation. It counts as in vitro ADME.
Sequence of CYP2C9 (P11712 whole entry): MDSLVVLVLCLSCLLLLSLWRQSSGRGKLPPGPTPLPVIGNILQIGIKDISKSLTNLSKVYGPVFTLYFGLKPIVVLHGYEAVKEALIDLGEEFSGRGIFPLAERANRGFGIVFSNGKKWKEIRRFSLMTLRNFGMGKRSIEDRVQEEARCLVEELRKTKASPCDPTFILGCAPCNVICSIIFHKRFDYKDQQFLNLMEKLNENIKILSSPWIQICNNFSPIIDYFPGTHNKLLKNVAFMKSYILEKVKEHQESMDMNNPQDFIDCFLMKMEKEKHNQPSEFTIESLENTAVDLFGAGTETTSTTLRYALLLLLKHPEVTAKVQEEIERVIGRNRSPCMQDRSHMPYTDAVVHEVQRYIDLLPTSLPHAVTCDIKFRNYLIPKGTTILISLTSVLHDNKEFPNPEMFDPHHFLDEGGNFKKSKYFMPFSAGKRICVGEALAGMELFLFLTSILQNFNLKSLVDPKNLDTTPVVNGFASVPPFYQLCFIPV
Series [7] concerns allergen-induced asthma (OVA challenge). Description: Guinea pig allergic asthma (OVA) model. It counts as in vivo. As for the experimental part: Example 20: Guinea Pig Allergic Asthma Model
Compound 2 was evaluated in a guinea pig OVA model in order to determine efficacy in a setting of allergen-induced asthma. As an early indication of a pharmacodynamic response animals were challenged with DK-PGD2 2 hours post OVA challenge (2.5 hours post Compound 2 administration) and blood was collected 30 minutes later to assess leukocytes counts. […] OVA challenge caused a significant influx of cells in bronchoalveolar lavage fluid at 23.5 hr post-dose; there was no difference between animals that received OVA only versus those that received OVA plus DK-PGD2. The majority of cells were eosinophils and macrophages with a small, but significant proportion of neutrophils.

Where a name gives a salt, the structure may show the parent alone. Read-outs that look alike come from different tables or passages of the source. Some results are limits rather than exact numbers.

Sequence of CYP3A4 (P08684 whole entry): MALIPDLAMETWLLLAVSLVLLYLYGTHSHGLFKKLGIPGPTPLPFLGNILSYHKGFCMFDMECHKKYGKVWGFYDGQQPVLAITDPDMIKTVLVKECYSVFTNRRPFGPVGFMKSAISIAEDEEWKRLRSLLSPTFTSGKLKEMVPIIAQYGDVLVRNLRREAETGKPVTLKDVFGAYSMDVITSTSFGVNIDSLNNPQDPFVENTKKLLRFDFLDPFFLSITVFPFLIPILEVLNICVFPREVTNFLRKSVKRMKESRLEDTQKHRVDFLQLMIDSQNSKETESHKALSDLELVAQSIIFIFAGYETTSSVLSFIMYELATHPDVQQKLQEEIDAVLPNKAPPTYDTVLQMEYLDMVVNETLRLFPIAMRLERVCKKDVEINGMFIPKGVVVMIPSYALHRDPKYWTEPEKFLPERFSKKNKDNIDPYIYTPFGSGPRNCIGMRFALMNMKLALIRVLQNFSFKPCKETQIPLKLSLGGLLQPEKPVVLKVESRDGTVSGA
T1 sequence (Q9Y5Y4 whole entry): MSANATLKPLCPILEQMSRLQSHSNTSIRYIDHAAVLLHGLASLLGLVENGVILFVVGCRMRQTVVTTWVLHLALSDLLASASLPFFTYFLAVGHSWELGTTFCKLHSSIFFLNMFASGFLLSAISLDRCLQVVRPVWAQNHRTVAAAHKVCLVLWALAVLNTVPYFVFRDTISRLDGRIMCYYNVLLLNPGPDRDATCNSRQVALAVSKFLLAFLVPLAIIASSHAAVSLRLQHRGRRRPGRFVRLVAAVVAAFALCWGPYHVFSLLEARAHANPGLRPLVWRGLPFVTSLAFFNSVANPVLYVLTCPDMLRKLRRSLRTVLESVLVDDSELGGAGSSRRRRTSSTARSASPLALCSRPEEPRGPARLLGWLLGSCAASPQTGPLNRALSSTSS

By IC90 is commonly meant the concentration needed for an effect of 90%. Low readings indicate greater potency, high ones weaker potency. The term IC50 denotes the midpoint of a concentration-inhibition curve. As to `COc1ccc(CC(=O)O)cc1Oc1ccc(NC(=O)C(C)(C)C)cc1CSC(C)(C)C` [Compound 1, 2-(3-(2-((tert-butylthio)methyl)-4-(2,2-dimethyl-propionylamino)phenoxy)-4-methoxyphenyl)acetic acid], the 90% effect concentration (IC90) in series [1] is 5.5 nM; in series [1] (same value expressed in ng/mL) it was 2.6 ng/mL. Also, the IC50 was 1.5 nM in series [1] (average, 50 nM PGD2, read-out: IC50, PGD2-induced eosinophil shape change in human whole blood); 1.52 nM in series [1] (same value expressed in ng/mL, read-out: IC50, human ESC (converted)); 19.7 nM in series [2] (average, 0.2% species-specific albumin, read-out: IC50, radioligand membrane binding on human DP2); 5.2 nM in series [2] (average, without serum albumin, read-out: IC50, inhibition of radiolabeled PGD2 binding to human DP2); 19.7 nM in series [2] (in the presence of 0.5% serum albumin, read-out: IC50, binding to DP2). In series [3] (24 hours after oral dose, each dose amount, below lower limit of quantitation, read-out: plasma Compound 1 concentration), the concentration at 24 h is < 40 nM. Further, the values for the concentration at 3 h in series [3] (30 mg/kg), in series [3] (60 mg/kg) and in series [3] (100 mg/kg) were 107 ± 31.7 nM, 372 ± 304 nM and 361 ± 131 nM, respectively.

Turning to `COc1ccc(CC(=O)O)cc1Oc1ccc(NC(=O)C(C)(C)C)cc1CSC(C)(C)C` [Compound 2, 2-(3-(2-((tert-butylthio)methyl)-4-(2,2-dimethyl-propionylamino)phenoxy)-4-methoxyphenyl)acetic acid, sodium salt], the IC50 in series [4] (3A4, midazolam 1-hydroxylation, read-out: IC50) was > 50000 nM; in series [4] (3A4, testosterone 6β-hydroxylation, read-out: IC50), 26000 nM; in series [4] (not a potent inhibitor, read-out: IC50, CYP3A4 (summary statement)) it was > 25000 nM; in series [5] it was > 50 µM; in series [6], > 50000 nM. Also, the “eosinophils and neutrophils in bronchoalveolar lavage fluid” value in series [7] (100 mg/kg PO) is “significantly reduced”. In series [7] (30, 60, and 100 mg/kg PO, significant at 60 and 100 mg/kg, 23.5 hr post-dose), the “total cellular influx in bronchoalveolar lavage fluid” value is “dose dependently inhibited”. Besides, the “DK-PGD2-induced increase in blood leukocytes” value in series [7] (30, 60, and 100 mg/kg, 2.5 hours post administration) is “blocked”.
